Here are results for 16 compounds from patent US20250236608A1, “EGFR INHIBITORS” (Blueprint Medicines Corporation, priority 2022, published 2025).

Assay [1] concerns the target EGFR L858R (Homo sapiens (Human), UniProt P00533, L858R). Description: Biochemical EGFR inhibition assay, EGFR L858R. The settings on record: Caliper mobility shift; 1.0 mM ATP or ATP Km; read-out: Enz EGFR_L858R IC50.
Assay [2] has as its target pEGFR (Tyr1068) in PC-9 cells (Ex19Del) (Homo sapiens (Human), UniProt P00533, DEL746-750). Description: PC-9 pEGFR AlphaLISA assay. The format is cell-based. The conditions noted are these: 4 hours incubation, p-EGFR (Tyr1068) AlphaLISA, read-out: Ext pEGFR_PC-9 Ex19Del IC50. The essentials:
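First, cells settled overnight in 10% FBS medium. Second, a 10-point, 4-fold series of test agents was applied for 4 h at 37° C. Third, lysates were probed with AlphaLISA acceptor and donor beads, incubated overnight in the dark. Last, IC50 was taken from the dose-response.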

In assay [3] the target is EGFR (d746-750) (Homo sapiens (Human), UniProt P00533, DEL746-750). Description: Biochemical EGFR inhibition assay, EGFR (d746-750). The conditions noted are these: Caliper mobility shift; 1.0 mM ATP or ATP Km; read-out: Enz EGFR_Exon19-del746-750 IC50.

One may read the IC50 as the midpoint of a concentration-inhibition curve.

Chain of EGFR L858R (P00533 25-1210 L858R): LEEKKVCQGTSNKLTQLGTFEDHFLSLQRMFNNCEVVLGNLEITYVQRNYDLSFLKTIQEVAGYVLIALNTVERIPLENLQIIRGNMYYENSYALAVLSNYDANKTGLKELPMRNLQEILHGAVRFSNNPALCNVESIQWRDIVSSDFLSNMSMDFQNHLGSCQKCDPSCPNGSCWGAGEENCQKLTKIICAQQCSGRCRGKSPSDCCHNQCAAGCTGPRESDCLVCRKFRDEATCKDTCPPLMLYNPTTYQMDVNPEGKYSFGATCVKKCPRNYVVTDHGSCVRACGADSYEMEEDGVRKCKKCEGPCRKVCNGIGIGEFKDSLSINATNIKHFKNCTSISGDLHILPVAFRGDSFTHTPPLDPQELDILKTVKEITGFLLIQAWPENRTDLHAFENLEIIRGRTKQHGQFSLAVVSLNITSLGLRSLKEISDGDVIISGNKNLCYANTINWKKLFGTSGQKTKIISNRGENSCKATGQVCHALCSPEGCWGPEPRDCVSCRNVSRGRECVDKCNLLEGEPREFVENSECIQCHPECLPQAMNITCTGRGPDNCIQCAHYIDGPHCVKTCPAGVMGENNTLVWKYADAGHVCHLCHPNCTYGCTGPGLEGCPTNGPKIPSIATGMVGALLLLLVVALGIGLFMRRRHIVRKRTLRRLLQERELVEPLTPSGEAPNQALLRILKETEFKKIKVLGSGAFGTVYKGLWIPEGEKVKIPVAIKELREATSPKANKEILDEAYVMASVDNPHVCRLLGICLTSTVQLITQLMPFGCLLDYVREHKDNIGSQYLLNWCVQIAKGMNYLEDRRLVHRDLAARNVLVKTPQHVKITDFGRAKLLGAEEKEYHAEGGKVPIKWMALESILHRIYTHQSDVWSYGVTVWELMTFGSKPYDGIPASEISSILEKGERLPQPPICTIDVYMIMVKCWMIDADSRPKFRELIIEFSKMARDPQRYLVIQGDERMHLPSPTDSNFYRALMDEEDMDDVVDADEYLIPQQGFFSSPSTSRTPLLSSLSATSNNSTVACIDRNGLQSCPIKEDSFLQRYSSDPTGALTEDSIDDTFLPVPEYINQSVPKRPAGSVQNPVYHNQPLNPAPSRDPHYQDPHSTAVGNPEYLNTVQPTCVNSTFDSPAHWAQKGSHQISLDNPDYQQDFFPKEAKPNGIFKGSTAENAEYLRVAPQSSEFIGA
Chain of pEGFR (Tyr1068) in PC-9 cells (Ex19Del) (P00533 other isoform, or with tags, fused parts or gaps del 746-750): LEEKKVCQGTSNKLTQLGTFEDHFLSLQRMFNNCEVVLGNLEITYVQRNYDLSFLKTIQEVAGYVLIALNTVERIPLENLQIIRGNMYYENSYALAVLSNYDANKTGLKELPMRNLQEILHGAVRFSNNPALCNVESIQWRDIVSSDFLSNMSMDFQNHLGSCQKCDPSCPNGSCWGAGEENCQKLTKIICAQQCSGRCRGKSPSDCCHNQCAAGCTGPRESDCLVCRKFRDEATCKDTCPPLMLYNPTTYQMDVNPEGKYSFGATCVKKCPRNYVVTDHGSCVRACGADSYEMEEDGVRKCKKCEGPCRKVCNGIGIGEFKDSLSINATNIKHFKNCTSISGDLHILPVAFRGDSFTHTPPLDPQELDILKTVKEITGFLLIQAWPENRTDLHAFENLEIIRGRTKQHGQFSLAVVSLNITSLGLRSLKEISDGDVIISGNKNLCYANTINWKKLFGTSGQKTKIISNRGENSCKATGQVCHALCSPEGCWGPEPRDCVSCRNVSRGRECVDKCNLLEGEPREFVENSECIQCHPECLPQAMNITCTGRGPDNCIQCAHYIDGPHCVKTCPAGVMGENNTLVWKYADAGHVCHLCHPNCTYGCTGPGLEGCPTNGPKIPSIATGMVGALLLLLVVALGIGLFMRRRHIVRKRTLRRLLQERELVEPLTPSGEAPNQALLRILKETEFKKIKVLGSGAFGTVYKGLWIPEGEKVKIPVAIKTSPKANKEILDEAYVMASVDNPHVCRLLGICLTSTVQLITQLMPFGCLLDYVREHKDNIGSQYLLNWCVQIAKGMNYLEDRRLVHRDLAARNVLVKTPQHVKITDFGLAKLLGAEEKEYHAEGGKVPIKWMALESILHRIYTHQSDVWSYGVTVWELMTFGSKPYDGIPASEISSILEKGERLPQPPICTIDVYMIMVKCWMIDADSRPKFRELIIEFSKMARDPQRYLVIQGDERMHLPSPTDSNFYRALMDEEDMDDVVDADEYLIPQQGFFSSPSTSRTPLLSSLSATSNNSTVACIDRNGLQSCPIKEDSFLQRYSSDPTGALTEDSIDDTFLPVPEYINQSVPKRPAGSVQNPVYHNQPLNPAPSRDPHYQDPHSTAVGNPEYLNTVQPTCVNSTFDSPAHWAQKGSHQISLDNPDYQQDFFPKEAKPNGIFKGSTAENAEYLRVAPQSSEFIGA
Chain of EGFR (d746-750) (P00533 other isoform, or with tags, fused parts or gaps del 1-694/del 746-750 limits assumed): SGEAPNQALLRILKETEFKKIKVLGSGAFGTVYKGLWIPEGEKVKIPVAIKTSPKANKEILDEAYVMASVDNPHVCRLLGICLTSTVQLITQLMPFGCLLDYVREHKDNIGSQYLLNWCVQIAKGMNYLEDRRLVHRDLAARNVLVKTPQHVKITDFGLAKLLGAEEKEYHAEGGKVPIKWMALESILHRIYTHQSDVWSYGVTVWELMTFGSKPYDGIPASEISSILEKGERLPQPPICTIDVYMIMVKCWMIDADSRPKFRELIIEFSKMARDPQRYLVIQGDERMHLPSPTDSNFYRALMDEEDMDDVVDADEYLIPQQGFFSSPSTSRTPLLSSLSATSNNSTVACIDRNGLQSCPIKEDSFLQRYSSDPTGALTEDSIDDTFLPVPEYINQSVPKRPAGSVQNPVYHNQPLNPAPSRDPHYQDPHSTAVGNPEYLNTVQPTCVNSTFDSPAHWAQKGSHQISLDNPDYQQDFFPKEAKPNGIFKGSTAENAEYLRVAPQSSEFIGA

Take `COc1cc2ncnc(-c3cn(C)nc3-c3ccccc3)c2cc1[C@@H](C)O` (single isomer, unassigned) [Example 115, (R)-1-(7-methoxy-4-(1-methyl-3-phenyl-1H-pyrazol-4-yl)quinazolin-6-yl)ethan-1-ol or (S)-1-(7-methoxy-4-(1-methyl-3-phenyl-1H-pyrazol-4-yl)quinazolin-6-yl)ethan-1-ol]: the half-maximal inhibitory concentration (IC50) in assay [1] came to 2.3 nM; in assay [2], 10.6 nM; in assay [3], 1.2 nM.
For `CCC(=O)Nc1cc2c(-c3cn(C)nc3-c3ccccc3)ncnc2cc1OC` [Example 322, N-(7-methoxy-4-(1-methyl-3-phenyl-1H-pyrazol-4-yl)quinazolin-6-yl)propionamide], in that order: 2.1 nM, 1.6 nM and 1.7 nM.
Turning to `COc1cc2ncnc(-c3cn(C)nc3-c3ccccc3)c2cc1OC(=O)N1CCN(C)C(C)(C)C1` [Example 77, 7-methoxy-4-(1-methyl-3-phenyl-1H-pyrazol-4-yl)quinazolin-6-yl 3,3,4-trimethylpiperazine-1-carboxylate], the concentration for half-maximal inhibition (IC50) in assay [1] came out at 7.2 nM; in assay [2], 9.7 nM; in assay [3] it was 3.5 nM.
For `COc1cc2ncnc(-c3cn(C)nc3-c3ccccc3)c2cc1N1CC[C@@H](F)[C@H](O)C1` (single isomer, unassigned) [Example 173, (3R,4R)-4-fluoro-1-(7-methoxy-4-(1-methyl-3-phenyl-1H-pyrazol-4-yl)quinazolin-6-yl) piperidin-3-ol or (3S,4S)-4-fluoro-1-(7-methoxy-4-(1-methyl-3-phenyl-1H-pyrazol-4-yl)quinazolin-6-yl) piperidin-3-ol], the IC50 is 9 nM in assay [1], 13.8 nM in assay [2] and 3.6 nM in assay [3].
In the case of `COc1cc2ncnc(-c3cn(C)nc3-c3ccccc3)c2cc1NC(=O)c1ccc(C2CC2)nc1` [Example 229, 6-cyclopropyl-N-(7-methoxy-4-(1-methyl-3-phenyl-1H-pyrazol-4-yl)quinazolin-6-yl) nicotinamide], the half-inhibitory concentration (IC50) in assay [1] turned out to be 3.5 nM; in assay [2], 3.7 nM; in assay [3], 1.7 nM.
Turning to `COc1cc2ncnc(-c3cn(C)nc3-c3ccccc3)c2nc1NC(=O)C1(C(F)(F)F)CC1` [Example 361, N-(7-methoxy-4-(1-methyl-3-phenyl-1H-pyrazol-4-yl)pyrido[3,2-d]pyrimidin-6-yl)-1-(trifluoromethyl)cyclopropane-1-carboxamide], the IC50 in assay [1] stood at 1.6 nM; in assay [2], 1.2 nM; in assay [3], 0.9 nM.
In the case of `COc1cc2ncnc(-c3cn(C)nc3-c3ccccc3)c2cc1NC(=O)[C@H](C)N(C)C` (single isomer, unassigned) [Example 236, (S)-2-(dimethylamino)-N-(7-methoxy-4-(1-methyl-3-phenyl-1H-pyrazol-4-yl)quinazolin-6-yl) propenamide or (R)-2-(dimethylamino)-N-(7-methoxy-4-(1-methyl-3-phenyl-1H-pyrazol-4-yl)quinazolin-6-yl) propenamide], the 50% inhibitory concentration (IC50) in assay [1] was 3.8 nM; in assay [2], 3.9 nM; in assay [3], 1.4 nM.
Consider `COc1cc2ncnc(-c3cn(CCO)nc3-c3ccccc3)c2cc1NC(=O)c1ccccc1F` [Example 264, 2-fluoro-N-(4-(1-(2-hydroxyethyl)-3-phenyl-1H-pyrazol-4-yl)-7-methoxyquinazolin-6-yl)benzamide], for which the concentration for half-maximal inhibition (IC50) in assay [1] was 0.6 nM; in assay [2], 0.3 nM; in assay [3] it was 0.4 nM.
Regarding `COc1cc2ncnc(-c3cn(C)nc3-c3c(F)cccc3F)c2cc1OC(=O)N1CCOC[C@@H]1C` [Example 67, 4-(3-(2,6-difluorophenyl)-1-methyl-1H-pyrazol-4-yl)-7-methoxyquinazolin-6-yl (S)-3-methylmorpholine-4-carboxylate], the half-inhibitory concentration (IC50) turned out to be 8.3 nM in assay [1], 12.4 nM in assay [2] and 2.8 nM in assay [3].
Turning to `COc1cc2ncnc(-c3cn(CC4CC4)nc3-c3ccccc3)c2nc1NC(=O)[C@@]12C[C@@H]1CN(C)C2` (single isomer, unassigned) [Example 408, (1R,5R)—N-(4-(1-(cyclopropylmethyl)-3-phenyl-1H-pyrazol-4-yl)-7-methoxypyrido[3,2-d]pyrimidin-6-yl)-3-methyl-3-azabicyclo[3.1.0]hexane-1-carboxamide or (1S,5S)—N-(4-(1-(cyclopropylmethyl)-3-phenyl-1H-pyrazol-4-yl)-7-methoxypyrido[3,2-d]pyrimidin-6-yl)-3-methyl-3-azabicyclo[3.1.0]hexane-1-carboxamide], the figures for the IC50 in assay [1], in assay [2] and in assay [3] were 1.5 nM, 0.7 nM and 0.7 nM, respectively.
On to `Cn1cc(-c2ncnc3cc(OC4CC4)c(NC(=O)C4(C(F)(F)F)CC4)nc23)c(-c2ccccc2)n1` [Example 463, N-[7-cyclopropoxy-4-(1-methyl-3-phenyl-1H-pyrazol-4-yl)pyrido[3,2-d]pyrimidin-6-yl]-1-(trifluoromethyl)cyclopropane-1-carboxamide], for which the half-inhibitory concentration (IC50) in assay [1] was found to be 3.9 nM; in assay [2] it was 1.7 nM; in assay [3], 0.8 nM.
For the compound `COc1cc2ncnc(-c3cn(C)nc3-c3ccccc3)c2cc1-c1cccc2[nH]ncc12` [Example 143, 6-(1H-indazol-4-yl)-7-methoxy-4-(1-methyl-3-phenyl-1H-pyrazol-4-yl)quinazoline], the values for the concentration for half-maximal inhibition (IC50) in assay [1], in assay [2] and in assay [3] were 4.5 nM, 3.2 nM and 1.7 nM, respectively.
For `COc1cc2ncnc(-c3c[nH]nc3-c3ccccc3)c2cc1[C@@H]1CCCCO1` (single isomer, unassigned) [Example 132, (S)-7-methoxy-4-(3-phenyl-1H-pyrazol-4-yl)-6-(tetrahydro-2H-pyran-2-yl)quinazoline or (R)-7-methoxy-4-(3-phenyl-1H-pyrazol-4-yl)-6-(tetrahydro-2H-pyran-2-yl)quinazoline], the half-inhibitory concentration (IC50) amounted to 1.4 nM in assay [1], 0.6 nM in assay [2] and 0.9 nM in assay [3].
Consider `COc1cc2ncnc(-c3cn(CCO)nc3-c3ccccc3)c2cc1NC(=O)C12CC(C1)C2` [Example 265, N-(4-(1-(2-hydroxyethyl)-3-phenyl-1H-pyrazol-4-yl)-7-methoxyquinazolin-6-yl)bicyclo[1.1.1]pentane-1-carboxamide], for which the figures for the half-inhibitory concentration (IC50) in assay [1], in assay [2] and in assay [3] were 3.2 nM, 2.3 nM and 1.8 nM, respectively.
In the case of `COc1cc2ncnc(-c3cn(C)nc3-c3ccccc3)c2cc1O[C@@H]1CCN(C)C[C@H]1F` [Example 1, 6-(((3R,4R)-3-fluoro-1-methylpiperidin-4-yl)oxy)-7-methoxy-4-(1-methyl-3-phenyl-1H-pyrazol-4-yl)quinazoline], the 50% inhibitory concentration (IC50) in assay [1] amounted to 4.2 nM; in assay [2], 4.2 nM; in assay [3] it was 1.8 nM.
With `CCOc1cc2ncnc(-c3cn(C)nc3-c3ccccc3)c2cc1N1CCN(C)C[C@@H]1C` [Example 174, (S)-6-(2,4-dimethylpiperazin-1-yl)-7-ethoxy-4-(1-methyl-3-phenyl-1H-pyrazol-4-yl)quinazoline], the IC50 in assay [1] was determined as 2.8 nM; in assay [2], 3.4 nM; in assay [3], 2.3 nM.
